Data on ten molecules can be found in US9481734B2, “Immunoglobulin cleavage fragments and disease indicators and compositions for detecting and binding such” (Janssen Biotech, Inc., priority 2007, dated 2016).

For assay [1], the system named is Fab fragment of the 2095-2 antibody. The note with it: Biacore, 25° C., 1:1 (Langmuir) model. As to the method:
The specificity of binding was further examined using a Fab fragment of the 2095-2 antibody using a surface plasmon resonance platform (Biacore). Briefly, the Fab was immobilized to a CM5 sensor chip in a Biacore 2000 at three different surface densities (8500, 1650, and 350 RU) using standard NHS/EDC coupling. The running buffer contained 10 mM HEPES pH 7.4, 150 mM NaCl, and 0.01% Tween-20. Data were collected at 25° C.
Three N-terminally biotinylated peptides were tested for binding of to the immobilized Fab: WT, representing the expected sequence of a peptide fragment from a human IgG1 cleavage site after cleavage by the Streptococcus pyogenes IdeS protease; E233A, representing a variant of having a single alanine substitution at the amino acid residue four positions upstream of the C-terminus; and L234A, a variant having a single alanine substitution at the amino acid residue three positions upstream from the C-terminus. The peptides were modified by substituting serine for cysteine to make them compatible with the coupling chemistry and preserve the monomeric structure.
Peptides Wild type and E233A were tested in a 3-fold dilution series using 588 nM and 2.9 uM as the highest concentration, respectively. Peptide L234A was tested at 14.7 uM as the highest concentration in a 2-fold dilution series. Each peptide concentration series was tested in triplicate over the three different density Fab surfaces. The association and dissociation were monitored for 1 minute. Surfaces were regenerated with a 12 second injection of 1/500 dilution of phosphoric acid.

Assay [2] relates to human IgG1. Put plainly: Proteinase digestion of purified IgG1, Agilent biosizing. It is filed as biochemical. As to conditions: for disappearance of intact IgG (160,000 Da): Mab1, 1% w/w enzyme, 37° C. As to the method: A purified monoclonal antibody comprising a human IgG heavy chain was contacted with the proteases described and sampling was conducted over various durations of contact. Fragmentation in the samples was evaluated using the Agilent microfluidics “lab-on-a-chip” technology for in vitro biosizing (Goetz H et al. Biochemical and Biophysical Methods 60; 281-293, 2004).
Sequence of human IgG1 (P01857 99-224 limits assumed): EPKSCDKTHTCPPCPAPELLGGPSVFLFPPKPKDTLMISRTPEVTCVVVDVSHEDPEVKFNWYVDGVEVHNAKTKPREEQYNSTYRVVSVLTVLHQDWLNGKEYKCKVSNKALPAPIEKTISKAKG
Proteinase digestions of purified IgGs were carried out at pH 7.5 in phosphate-buffered saline (PBS) or, for the metalloproteinases, in Tris-buffered saline buffer at 37° C. Calcium chloride was included in the metalloproteinase reactions at 1 mM for MMP-12 and 10 mM for MMP-3; otherwise no additives were used. Antibody concentrations were typically 1 or 2 mg/mL and reactions were initiated by addition of enzyme to a 1% (w/w) ratio to IgG. Aliquots (10-20 μL) were removed at indicated times and the reactions were stopped either by adjustment to 20 mM EDTA (metalloproteinase incubations) or to 1 mM iodoacetamide (cysteine proteinases) or by rapid freezing.
The major proteolytic cleavage positions in the IgG1 hinge were identified for enzyme-generated fragments by N-terminal sequencing of the purified Fc fragment (MMP-3 and MMP-12) and/or high resolution mass spectrometric analyses of the purified Fab (neutrophil elastase, plasmin) and F(ab′)2 (cathepsin G, glutamyl endopeptidase and IdeS) fragments. Fragmentation was evaluated using the Agilent microfluidics “lab-on-a-chip” technology.

The test system of assay [3] is S. aureus (ATCC 29213). Put plainly: Wiffle ball (tissue cage) S. aureus infection model in rabbits. As to conditions: day 2 after inoculation with 6.2 log 10 CFUs, immunized rabbits. It is filed as in vivo. From the text:
In order to test the capacity of cleavage site specific antibodies to rescue cleaved IgGs in vivo, a model for bacterial infection employing a “tissue cage” (Fernandez J A, et. al. (1997) Antimicrob. Agents Chemother. 43(3):667-671) was adopted. In this system, a wiffle ball is surgically implanted subcutaneously in the dorsal cervical area. The model allows the infectious agents to be localized within an easily accessible fluid compartment, a tissue pouch, and has been used to assess the efficacy of antibiotics against bacteria.
In the final phase of the study, the immunized and non-immunized rabbits were inoculated with 6.2 log 10 colony forming units (CFUs) of S. aureus (ATCC 29213) directly into the wiffle-ball compartments.
The bacterial counts and test subject viability were monitored over the course of two weeks for bacterial counts and survival. The data shown in FIG. 13 indicate that during the first week of the study, the average bacterial counts for control animals were several logs higher than cleavage site specific vaccinated animals. For example, on day 2 the control had 7.2 log10 CFU/ml wiffle ball fluid while the immunized group had 5.2 log10 CFU/ml wiffle ball fluid.

Assay [4] relates to platelets. Kind of assay: Restoration of function study in dogs, platelet counts. As to conditions: c7E3 variants 0.05 mg/kg, mAb 2095-2 0.5 mg/kg after 10 min delay, groups of 3 animals. It is filed as in vivo. As to the method:
To be consistent with the prior experiments, the variants of c7E3 were all administered at the 0.05 mg/kg dose. The unique aspect of the experiment (groups 6 and 7) involves the infusion of the first targeting mAb followed by the cleavage site specific mAb after a 10 minute delay. The cleavage site specific IdeS cleavage site mAb, 2095-2, was administered at 0.5 mg/kg; 10-fold higher than the dose used for all of the c7E3 variants. The higher dose was chosen in order to maximize the complexation of cleavage site specific mAb with platelet-bound c7E3 variants. All mAbs were delivered by slow infusion over a 20 minute period. Platelet counts were monitored over a 96-hour period. The platelet counts were normalized to the pre-dose count within each animal for clarity of presentation and to minimize the normal variability in numerical platelet counts in these small 3-animal groups.

For assay [5], the system named is platelet surface IIb/III3 receptors. Put plainly: Platelet aggregation assay. It is filed as cell-based. The note with it: 5 μM adenosine diphosphate (ADP), compared with intact c7E3 IgG. As to the method: c7E3 inhibits platelet aggregation by binding to platelet surface IIb/III3 receptors—thereby blocking the ability of fibrinogen to bind to the receptors on activated platelets and to clump them together. The respective inhibitory profiles of intact and single-cleaved c7E3 IgG were tested in a platelet aggregation assay. Platelet aggregation is measured as an increase of light transmission through a platelet suspension after activation with a physiological agonist. The inhibition is compared to control aggregation to 5 μM adenosine diphosphate (ADP). The percent inhibition was calculated as: control aggregation−test aggregation×100%, divided by control aggregation.

The subject of assay [6] is platelets. Put plainly: Test infusions of c7E3 IgG in dogs, platelet depletion. It is filed as in vivo. The note with it: 0.05 mg/kg dose, calculated. From the text: First, the c7E3 antibody antigen binding and platelet depletion parameters were established in dogs.
Assay [7] has as its system platelets. Put plainly: Platelet counts in dogs, intact versus single-cleaved c7E3 IgG. It is filed as in vivo. The note with it: 0.05 mg/kg. As to the method: c7E3 IgG and c7E3 IgG single-cleaved by IdeS protease were also compared in vivo. Three groups of 5 animals received either saline control, intact c7E3 IgG (0.05 mg/kg) or c7E3 single-cleaved IgG (0.05 mg/kg). Platelet counts were monitored at baseline and at 2, 24, 48, 72 and 96 hours post-administration. Limiting the study to 5 days minimized the likelihood of anti-c7E3 immune responses that might confound the interpretation of the results. The results are presented in FIG. 3 as the mean platelet count±SD for each animal group at each time point. The extent of the error bars connotes the normal variability of platelet counts in different animals (for example, the predose counts for the 5 animals in the single-cleaved IgG treatment group were 175,000, 355,000, 305,000, 276,000 and 334,000 per μL, respectively).

No end group written: not given here. *: point of attachment. Biotin = O=C1N[C@H]2[C@H](CS[C@H]2CCCCC(=O)*)N1

Consider Biotin-TSPPSPAPELLG [Wt], for which, in assay [1], the “ka(M-1s-1) × 10^−5” value was 5.22 ± 0.04 M-1s-1 × 10^−5 and the “kd” value amounted to 0.00443 ± 0.02 s⁻¹.

Regarding Tryptase: human serine endopeptidase, the “Major Product” value in assay [2] (human IgG1, None denotes no detectable cleavage in 24 hours) was “None”.

Consider “Stromelysin (MMP-3): human metalloendopeptidase”, for which the “disappearance of intact IgG (160,000 Da)” value in assay [2] is “several hours”.

“C-T-S-P-P-S-P-S-P-A-P-E (CTSPPSPSPAPE; also: conjugated to KLH) [GluV8-cleavage site peptide analogue]”: the bacterial count in assay [3] is recorded as 5.2 log10 CFU/ml wiffle ball fluid.

Take Biotin-TSPPSPAPALLG [E233A]: in assay [1], the “ka(M-1s-1) × 10^−5” value is 7.29 ± 0.03 M-1s-1 × 10^−5 and the “kd” value was 0.1070 ± 0.04 s⁻¹.

Consider Biotin-TSPPSPAPEALG [L234A], for which, in assay [1], the “ka(M-1s-1) × 10^−5” value is 1.24 ± 0.01 M-1s-1 × 10^−5 and the “kd” value is 1.03 ± 0.01 s⁻¹.

As to “Glutamyl endopeptidase I (Glu V8 protease): Staph. aureus serine endopeptidase”, the “disappearance of intact IgG (160,000 Da)” value in assay [2] is reported as “several hours”.

Regarding “c7E3 sc IgG: c7E3 IgG single-cleaved by IdeS protease”, the “effect on platelet numbers” value in assay [4] is recorded as “without effect on platelet numbers”. Moreover, the “binding/inhibition of platelet aggregation after single lower hinge cleavage” value in assay [5] was “no loss of binding/inhibition”.

B1: c7E3 IgG: anti-platelet integrin (αIIbβIIIa) murine-human IgG1 chimeric antibody (antibody, chains of the INN, looked up, V domains shown)
VH: EVQLQQSGTVLARPGASVKMSCEASGYTFTNYWMHWVKQRPGQGLEWIGAIYPGNSDTSYIQKFKGKAKLTAVTSTTSVYMELSSLTNEDSAVYYCTLYDGYYVFAYWGQGTLVTVSA
VL: EIVLTQSPVTLSVTPGDSVSLSCRASRDISNNLHWFQQTSHESPRLLIKYASQSMSGIPSRFSGSGSGTDFTLSINSVETEDFGMYFCQQTNSWPYTFGGGTKLEIK
modifications: IgG1
notes: anti-platelet integrin (αIIbβIIIa) murine-human IgG1 chimeric antibody
Turning to B1, in assay [6], the αIIbβ3 receptor blockade result is given as “about 5%”. For the same molecule, in assay [7], the “nadir of platelet numbers” value was found to be 24 h. Further, the “recovery of platelet counts” value in assay [7] (by 96 hours) is on record as “approximately 50 % of the pre-dose level”. In addition, in assay [7] (groups of 5 animals, 96-hour monitoring), the “effect on platelet numbers” value is “substantial decrease of platelet numbers”.

B2: c7E3 F(ab′)2: F(ab′)2 of c7E3 prepared using the bacterial enzyme IdeS (antibody, chains of the INN, looked up, V domains shown)
VH: EVQLQQSGTVLARPGASVKMSCEASGYTFTNYWMHWVKQRPGQGLEWIGAIYPGNSDTSYIQKFKGKAKLTAVTSTTSVYMELSSLTNEDSAVYYCTLYDGYYVFAYWGQGTLVTVSA
VL: EIVLTQSPVTLSVTPGDSVSLSCRASRDISNNLHWFQQTSHESPRLLIKYASQSMSGIPSRFSGSGSGTDFTLSINSVETEDFGMYFCQQTNSWPYTFGGGTKLEIK
modifications: F(ab')2 IdeS-generated
notes: F(ab′)2 of c7E3 prepared using the bacterial enzyme IdeS
On to B2, for which, in assay [4], the “effect on platelet numbers” value is on record as “without effect on platelet numbers”.
